pIC50: −log10 of the molar value.
target: human Cav2.2 (Homo sapiens, UniProt Q00975); assay: Assessment of calcium channel activity using FLIPR (Ca2+ influx in IMR32 cells); format: cell-based; settings: not given
In short: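 Human neuroblastoma IMR32 cells were seeded at 1−1.2×10^5 cells/well and cultured 48 h at 37 °C before FLIPR calcium influx measurement. Percent inhibition at each concentration was calculated against the no-inhibitor signal, and IC50 came from sigmoidal dose-response fits.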

human Cav2.2, sequence (Q00975 whole entry): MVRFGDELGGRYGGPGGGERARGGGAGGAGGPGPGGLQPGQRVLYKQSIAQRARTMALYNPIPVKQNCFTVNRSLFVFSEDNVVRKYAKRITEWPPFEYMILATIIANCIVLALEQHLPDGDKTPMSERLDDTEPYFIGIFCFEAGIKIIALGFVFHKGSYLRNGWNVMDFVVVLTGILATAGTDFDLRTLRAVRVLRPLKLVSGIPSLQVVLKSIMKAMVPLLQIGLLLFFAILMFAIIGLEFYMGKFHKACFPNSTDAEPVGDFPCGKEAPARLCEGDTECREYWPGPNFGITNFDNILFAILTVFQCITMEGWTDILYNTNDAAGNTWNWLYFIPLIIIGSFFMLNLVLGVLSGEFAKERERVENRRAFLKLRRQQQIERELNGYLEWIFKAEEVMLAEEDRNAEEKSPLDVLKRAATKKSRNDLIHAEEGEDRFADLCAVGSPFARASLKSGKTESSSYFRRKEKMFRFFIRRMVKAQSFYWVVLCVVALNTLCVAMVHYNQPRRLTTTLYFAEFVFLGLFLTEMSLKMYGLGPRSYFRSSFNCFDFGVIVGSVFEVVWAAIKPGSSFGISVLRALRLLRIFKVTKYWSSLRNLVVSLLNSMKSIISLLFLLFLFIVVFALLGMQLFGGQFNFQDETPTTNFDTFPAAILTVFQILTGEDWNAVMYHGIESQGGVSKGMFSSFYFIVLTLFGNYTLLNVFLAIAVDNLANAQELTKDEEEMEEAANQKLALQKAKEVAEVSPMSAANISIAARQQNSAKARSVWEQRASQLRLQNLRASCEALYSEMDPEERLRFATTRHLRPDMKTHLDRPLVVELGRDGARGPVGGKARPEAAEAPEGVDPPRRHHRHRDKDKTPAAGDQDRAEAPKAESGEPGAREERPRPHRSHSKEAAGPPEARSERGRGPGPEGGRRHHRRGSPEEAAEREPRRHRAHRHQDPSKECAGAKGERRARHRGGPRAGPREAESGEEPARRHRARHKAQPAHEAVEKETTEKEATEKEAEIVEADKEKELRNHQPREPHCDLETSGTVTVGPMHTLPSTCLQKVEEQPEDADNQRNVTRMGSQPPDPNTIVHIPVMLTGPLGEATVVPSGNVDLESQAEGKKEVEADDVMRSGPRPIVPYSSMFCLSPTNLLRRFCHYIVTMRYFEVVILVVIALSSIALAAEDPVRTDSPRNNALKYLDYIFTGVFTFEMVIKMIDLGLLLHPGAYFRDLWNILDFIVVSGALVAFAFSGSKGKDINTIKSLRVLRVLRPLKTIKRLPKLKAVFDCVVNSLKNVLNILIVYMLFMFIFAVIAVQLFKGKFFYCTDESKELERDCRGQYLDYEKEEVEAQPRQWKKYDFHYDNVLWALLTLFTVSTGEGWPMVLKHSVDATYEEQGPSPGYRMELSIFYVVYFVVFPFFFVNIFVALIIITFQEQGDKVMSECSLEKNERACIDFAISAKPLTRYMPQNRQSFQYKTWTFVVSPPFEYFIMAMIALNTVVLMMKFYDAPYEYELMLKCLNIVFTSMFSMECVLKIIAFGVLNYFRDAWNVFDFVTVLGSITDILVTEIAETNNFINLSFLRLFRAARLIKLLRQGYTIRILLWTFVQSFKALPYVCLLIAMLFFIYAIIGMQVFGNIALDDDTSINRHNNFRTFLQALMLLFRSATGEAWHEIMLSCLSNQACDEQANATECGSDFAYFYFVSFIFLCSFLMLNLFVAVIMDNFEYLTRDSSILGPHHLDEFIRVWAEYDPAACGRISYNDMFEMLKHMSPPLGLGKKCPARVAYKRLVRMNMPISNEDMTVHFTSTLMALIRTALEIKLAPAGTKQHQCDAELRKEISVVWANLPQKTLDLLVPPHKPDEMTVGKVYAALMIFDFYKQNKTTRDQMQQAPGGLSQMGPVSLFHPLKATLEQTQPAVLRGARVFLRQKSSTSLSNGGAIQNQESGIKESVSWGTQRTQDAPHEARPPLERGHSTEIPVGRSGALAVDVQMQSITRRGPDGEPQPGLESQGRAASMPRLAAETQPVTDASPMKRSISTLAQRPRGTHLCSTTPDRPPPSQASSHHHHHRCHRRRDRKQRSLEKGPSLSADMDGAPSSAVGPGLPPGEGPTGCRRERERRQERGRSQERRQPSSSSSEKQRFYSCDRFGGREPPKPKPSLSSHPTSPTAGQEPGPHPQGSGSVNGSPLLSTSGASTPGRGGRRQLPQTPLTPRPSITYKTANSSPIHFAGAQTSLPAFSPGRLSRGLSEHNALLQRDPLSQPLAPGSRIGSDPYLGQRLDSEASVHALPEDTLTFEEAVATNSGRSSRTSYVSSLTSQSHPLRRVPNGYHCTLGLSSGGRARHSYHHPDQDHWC
human Cav2.2, sequence (P54289 25-956 partner limits assumed): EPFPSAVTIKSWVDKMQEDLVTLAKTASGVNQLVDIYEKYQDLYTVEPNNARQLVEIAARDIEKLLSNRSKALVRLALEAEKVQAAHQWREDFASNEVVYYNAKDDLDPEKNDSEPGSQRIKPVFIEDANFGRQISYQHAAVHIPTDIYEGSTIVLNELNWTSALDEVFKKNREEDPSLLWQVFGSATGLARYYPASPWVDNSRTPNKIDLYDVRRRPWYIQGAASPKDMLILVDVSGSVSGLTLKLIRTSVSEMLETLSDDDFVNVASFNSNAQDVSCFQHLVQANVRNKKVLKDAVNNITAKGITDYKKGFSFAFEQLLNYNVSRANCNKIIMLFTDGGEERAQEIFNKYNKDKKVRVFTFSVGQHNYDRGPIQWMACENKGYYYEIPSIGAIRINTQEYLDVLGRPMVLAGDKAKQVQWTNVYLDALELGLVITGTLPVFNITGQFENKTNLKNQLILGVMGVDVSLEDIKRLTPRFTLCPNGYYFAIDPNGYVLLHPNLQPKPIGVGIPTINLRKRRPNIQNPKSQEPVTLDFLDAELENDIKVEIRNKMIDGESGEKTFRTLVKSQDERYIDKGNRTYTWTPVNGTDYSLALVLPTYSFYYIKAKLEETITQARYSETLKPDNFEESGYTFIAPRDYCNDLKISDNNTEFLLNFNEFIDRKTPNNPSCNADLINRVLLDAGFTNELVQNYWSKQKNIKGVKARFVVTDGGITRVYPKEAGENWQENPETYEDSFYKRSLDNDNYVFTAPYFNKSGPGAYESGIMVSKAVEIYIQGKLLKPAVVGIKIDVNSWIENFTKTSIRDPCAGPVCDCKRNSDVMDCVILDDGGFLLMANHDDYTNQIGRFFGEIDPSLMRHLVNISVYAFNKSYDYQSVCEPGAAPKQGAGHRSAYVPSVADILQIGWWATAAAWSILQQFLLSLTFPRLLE
human Cav2.2, sequence (P54289 957-1103 partner limits assumed): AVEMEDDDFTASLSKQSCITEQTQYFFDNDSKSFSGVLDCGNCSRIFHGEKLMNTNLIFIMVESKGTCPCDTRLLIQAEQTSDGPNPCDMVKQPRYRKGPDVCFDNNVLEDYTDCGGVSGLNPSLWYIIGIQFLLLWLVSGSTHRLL
human Cav2.2, sequence (P54284 whole entry partner): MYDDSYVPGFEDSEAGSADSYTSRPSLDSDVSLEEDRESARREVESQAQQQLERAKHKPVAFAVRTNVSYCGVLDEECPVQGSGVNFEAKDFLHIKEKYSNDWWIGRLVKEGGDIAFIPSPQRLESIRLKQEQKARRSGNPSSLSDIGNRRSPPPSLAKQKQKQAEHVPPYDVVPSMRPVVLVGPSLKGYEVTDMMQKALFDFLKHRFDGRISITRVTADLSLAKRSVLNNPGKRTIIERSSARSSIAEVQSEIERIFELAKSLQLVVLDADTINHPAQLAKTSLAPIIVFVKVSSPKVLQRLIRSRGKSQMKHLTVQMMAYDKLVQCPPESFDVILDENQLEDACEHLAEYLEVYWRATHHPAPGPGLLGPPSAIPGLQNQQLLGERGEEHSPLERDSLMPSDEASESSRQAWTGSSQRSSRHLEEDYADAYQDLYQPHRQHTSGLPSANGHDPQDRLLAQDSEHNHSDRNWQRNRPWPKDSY

pIC50 | Compound
6.10 | FC(F)(F)c1cccc(N2C[C@H]3CC[C@H](NCc4c[nH]nc4-c4cccs4)[C@H]3C2)n1 [Example 669, (3aR,4S,6aS)-N-{[3-(2-thienyl)-1H-pyrazol-4-yl]methyl}-2-[6-(trifluoromethyl)pyridin-2-yl]octahydrocyclopenta[c]pyrrol-4-amine]
6.30 | CC(C)(C)[C@H](N)C(=O)N[C@H]1CC[C@@H]2CN(c3cccc(C(F)(F)F)n3)C[C@@H]21 [Example 591, 3-methyl-N-{(3aR,4S,6aS)-2-[6-(trifluoromethyl)pyridin-2-yl]octahydrocyclopenta[c]pyrrol-4-yl}-L-valinamide]
< 5.52 | CN[C@H](C(=O)N[C@H]1CC[C@@H]2CN(c3ccc(C(F)(F)F)cc3)C[C@@H]21)[C@H](C)O [Example 750, N^2-methyl-N-{(3aR,4S,6aS)-2-[4-(trifluoromethyl)phenyl]octahydrocyclopenta[c]pyrrol-4-yl}-L-allothreoninamide]
< 4.52 | CC(C)CC(=O)N[C@@H]1CC[C@H]2CN(Cc3ccccc3)C[C@H]21 [Example 236, N-[(3aS,4R,6aR)-2-benzyloctahydrocyclopenta[c]pyrrol-4-yl]-3-methylbutanamide]
6.40 | CC(C)C[C@H](O)C(=O)N[C@H]1CC[C@@H]2CN(c3cccc(C(F)(F)F)n3)C[C@@H]21 [Example 567, (2S)-2-hydroxy-4-methyl-N-{(3aR,4S,6aS)-2-[6-(trifluoromethyl)pyridin-2-yl]octahydrocyclopenta[c]pyrrol-4-yl}pentanamide]
6.29 | O=C(N[C@H]1CC[C@H]2CN(Cc3cccc(OC(F)(F)F)c3)C[C@H]21)C(C1CCCCC1)C1CCCCC1 [Example 63, 2,2-dicyclohexyl-N-{(3aS,4S,6aR)-2-[3-(trifluoromethoxy)benzyl]octahydrocyclopenta[c]pyrrol-4-yl}acetamide]
6.00 | Cc1c[nH]c(C(=O)N[C@H]2CC[C@@H]3CN(c4cccc(C(F)(F)F)n4)C[C@@H]32)c1 [Example 572, 4-methyl-N-{(3aR,4S,6aS)-2-[6-(trifluoromethyl)pyridin-2-yl]octahydrocyclopenta[c]pyrrol-4-yl}-1H-pyrrole-2-carboxamide]
5.29 | CC[C@H](NC(C)C)C(=O)N[C@H]1CC[C@@H]2CN(c3ccc(C(F)(F)F)cc3)C[C@@H]21 [Example 762, (2S)-2-(isopropylamino)-N-{(3aR,4S,6aS)-2-[4-(trifluoromethyl)phenyl]octahydrocyclopenta[c]pyrrol-4-yl}butanamide]
5.80 | CC(C)CC(C(=O)NC1CCC2CN(Cc3ccc(F)c(C(F)(F)F)c3)CC21)N(C)C(=O)OC(C)(C)C [Example 312, tert-butyl(S)-1-((3aS,4R,6aR)-2-(4-fluoro-3-(trifluoromethyl)benzyl)octahydrocyclopenta[c]pyrrol-4-ylamino)-4-methyl-1-oxopentan-2-ylmethyl)carbamate]
5.77 | Cc1c(CN[C@H]2CC[C@@H]3CN(c4cccc(C(F)(F)F)n4)C[C@@H]32)[nH]c2ccccc12 [Example 664, (3aR,4S,6aS)-N-[(3-methyl-1H-indol-2-yl)methyl]-2-[6-(trifluoromethyl)pyridin-2-yl]octahydrocyclopenta[c]pyrrol-4-amine]
5.86 | FC(F)(F)c1cccc(N2C[C@H]3CC[C@H](NCc4c[nH]nc4-c4ccc(Cl)cc4)[C@H]3C2)n1 [Example 666, (3aR,4S,6aS)-N-{[3-(4-chlorophenyl)-1H-pyrazol-4-yl]methyl}-2-[6-(trifluoromethyl)pyridin-2-yl]octahydrocyclopenta[c]pyrrol-4-amine]
5.45 | CN[C@@H](CC(C)C)C(=O)N[C@H]1CC[C@@H]2CN(c3cccc(Cl)c3)C[C@@H]21 [Example 628, N-[(3aR,4S,6aS)-2-(3-chlorophenyl)octahydrocyclopenta[c]pyrrol-4-yl]-N^2-methyl-L-leucinamide]
5.79 | CC(C)C(C(=O)N[C@H]1CC[C@@H]2CN(Cc3cccc(C(F)(F)F)c3)C[C@@H]21)C(C)C [Example 305, 2-isopropyl-3-methyl-N-{(3aR,4S,6aS)-2-[3-(trifluoromethyl)benzyl]octahydrocyclopenta[c]pyrrol-4-yl}butanamide]
< 4.52 | CCCC[C@H](NC)C(=O)N[C@H]1CC[C@@H]2CN(Cc3ccccc3)C[C@@H]21 [Example 362, N^1-[(3aR,4S,6aS)-2-benzyloctahydrocyclopenta[c]pyrrol-4-yl]-N^2-methyl-L-norleucinamide]
6.17 | O=C(N[C@H]1CC[C@H]2CN(Cc3cccc(C(F)(F)F)c3)C[C@H]21)C(c1ccccc1)c1ccccc1 (relative stereo) [Example 135, 2,2-diphenyl-N-{(3aS*,4S*,6aR*)-2-[3-(trifluoromethyl)benzyl]octahydrocyclopenta[c]pyrrol-4-yl}acetamide]
5.45 | CN[C@@H](CC(C)C)C(=O)N[C@H]1CC[C@@H]2CN(c3ccc(C)cc3)C[C@@H]21 [Example 648, N^2-methyl-N-[(3aR,4S,6aS)-2-(4-methylphenyl)octahydrocyclopenta[c]pyrrol-4-yl]-L-leucinamide]
6.44 | CN[C@@H](CC(C)C)C(=O)N[C@H]1CC[C@@H]2CN(c3ccc(F)cc3C(F)(F)F)C[C@@H]21 [Example 737, N-{(3aR,4S,6aS)-2-[4-fluoro-2-(trifluoromethyl)phenyl]octahydrocyclopenta[c]pyrrol-4-yl}-N^2-methyl-L-leucinamide]
5.68 | O=C(N[C@H]1CC[C@@H]2CN(c3ccc(C(F)(F)F)cn3)C[C@@H]21)c1cc2ccccc2[nH]1 [Example 568, N-{(3aR,4S,6aS)-2-[5-(trifluoromethyl)pyridin-2-yl]octahydrocyclopenta[c]pyrrol-4-yl}-1H-indole-2-carboxamide]
5.62 | CN[C@@H](CC(C)C)C(=O)N[C@H]1CC[C@@H]2CN(c3ccccc3Cl)C[C@@H]21 [Example 634, N-[(3aR,4S,6aS)-2-(2-chlorophenyl)octahydrocyclopenta[c]pyrrol-4-yl]-N^2-methyl-L-leucinamide]

same assay, conditions: read-out: IC50 (μM) or percent inhibition (* indicates 3 minute incubation, otherwise 60 minute); IC50; 60 minute pre-incubation with compound; IMR32 cells, 80 mM KCl depolarization

IC50 | Compound
1.45 µM | CC(C)C[C@H](N)C(=O)N[C@@H]1CC[C@H]2CN(S(=O)(=O)c3cccc(C(F)(F)F)c3)C[C@H]21 [Example 184, N^1-((3aS,4R,6aR)-2-{[3-(trifluoromethyl)phenyl]sulfonyl}octahydrocyclopenta[c]pyrrol-4-yl)-L-leucinamide]
1.21 µM | CC(C)C[C@@H](C(=O)N[C@H]1CC[C@H]2CN(Cc3cccc(C(F)(F)F)c3)C[C@H]21)N(C)S(C)(=O)=O [Example 167, N^2-methyl-N^2-(methylsulfonyl)-N^1-{(3aS,4S,6aR)-2-[3-(trifluoromethyl)benzyl]octahydrocyclopenta[c]pyrrol-4-yl}-L-leucinamide]
3.14 µM | CC(C)C(C(=O)N[C@H]1CC[C@@H]2CN(Cc3cccc(F)c3)C[C@@H]21)c1ccccc1 (stereo partly drawn) [Example 87, N-[(3aR,4S,6aS)-2-(3-fluorobenzyl)octahydrocyclopenta[c]pyrrol-4-yl]-3-methyl-2-phenylbutanamide]
3.89 µM | CC(C)C[C@H](N)C(=O)N[C@@H]1CC[C@H]2CN(Cc3cccc(C(F)(F)F)c3)C[C@H]21 (relative stereo) [Example 161, N^1-{(3aS*,4R*,6aR*)-2-[3-(trifluoromethyl)benzyl]octahydrocyclopenta[c]pyrrol-4-yl}-L-leucinamide]
1.54 µM | O=S(=O)(c1cccc(C(F)(F)F)c1)N(C1CC1)[C@H]1CC[C@H]2CN(CCC(c3ccc(F)cc3)c3ccc(F)cc3)C[C@H]21 (relative stereo) [Example 203, N-{(3aS*,4S*,6aR*)-2-[3,3-bis(4-fluorophenyl)propyl]octahydrocyclopenta[c]pyrrol-4-yl}-N-cyclopropyl-3-(trifluoromethyl)benzenesulfonamide]
7.41 µM | CC[C@H](C(=O)N[C@H]1CC[C@@H]2CN(Cc3ccccc3)C[C@@H]21)c1ccccc1 [Example 33, (2S)-N-[(3aR,4S,6aS)-2-benzyloctahydrocyclopenta[c]pyrrol-4-yl]-2-phenylbutanamide]
8.58 µM | CC(C)C[C@H](NS(C)(=O)=O)C(=O)N[C@@H]1CC[C@H]2CN(Cc3ccccc3)C[C@H]21 [Example 243, N^1-[(3aS,4R,6aR)-2-benzyloctahydrocyclopenta[c]pyrrol-4-yl]-N^2-(methylsulfonyl)-L-leucinamide]
2.72 µM | CN[C@@H](CC(C)C)C(=O)N[C@@H]1CC[C@H]2CN(Cc3cccc(C(F)(F)F)c3)C[C@H]21 [Example 166, N^2-methyl-N^1-{(3aS,4R,6aR)-2-[3-(trifluoromethyl)benzyl]octahydrocyclopenta[c]pyrrol-4-yl}-L-leucinamide]
0.88 µM | CC(C)C(C(=O)N[C@H]1CC[C@@H]2CN(CCC(c3ccc(F)cc3)c3ccc(F)cc3)C[C@@H]21)c1ccccc1 (stereo partly drawn) [Example 117, N-{(3aR,4S,6aS)-2-[3,3-bis(4-fluorophenyl)propyl]octahydrocyclopenta[c]pyrrol-4-yl}-3-methyl-2-phenylbutanamide]
1.14 µM | CC(C)C(C(=O)N[C@H]1CC[C@@H]2CN(CCCCCC(c3ccc(F)cc3)c3ccc(F)cc3)C[C@@H]21)c1ccccc1 (stereo partly drawn) [Example 107, N-{(3aR,4S,6aS)-2-[6,6-bis(4-fluorophenyl)hexyl]octahydrocyclopenta[c]pyrrol-4-yl}-3-methyl-2-phenylbutanamide]
0.69 µM | CC(C)C[C@@H](C(=O)N[C@@H]1CC[C@H]2CN(Cc3cccc(C(F)(F)F)c3)C[C@H]21)N(C)C(=O)OC(C)(C)C [Example 155, N^2-(tert-butyloxycarbonyl)-N^2-methyl-N^1-{(3aS,4R,6aR)-2-[3-(trifluoromethyl)benzyl]octahydrocyclopenta[c]pyrrol-4-yl}-L-leucinamide]

Compound | IC50
(3aR,4S,6aS)-N-[(5-fluoro-1-methyl-1H-indol-2-yl)methyl]-2-[6-(trifluoromethyl)pyridin-2-yl]octahydrocyclopenta[c]pyrrol-4-amine [Example 748] | 0.81 µM

Source: patent publication US8691865B2 (AbbVie Inc., priority 2008, dated 2014)
